Source: article PMC10459044, “Anticholinesterase and Serotoninergic Evaluation of Benzimidazole–Carboxamides as Potential Multifunctional Agents for the Treatment of Alzheimer’s Disease” (Pharmaceutics, 2023)
Entries after “also recorded” stand apart in the source; their conditions may differ. Like-named read-outs stand apart in the source and are kept apart here.

Assays:
human BChE = target: T1, human BChE (Homo sapiens, UniProt P06276); assay: Inhibition of human plasma BChE, microplate Ellman method; format: biochemical; details: for Type of Inhibition: human BChE, Lineweaver–Burk plots; for Ki: human plasma BChE (1:30 dilution), BTCh substrate, 37 °C
T1 construct: human plasma BChE (Mechnikov Scientific Research Institute of Vaccines and Serums, St. Petersburg, Russia); purchased Mechnikov Scientific Research Institute of Vaccines and Serums, St. Petersburg, Russia; host or cells: human plasma (natural source)
Protocol: (§1) The biochemical analysis of the inhibitory ability of the drugs against AChE and BChE was performed using a microplate modification of the Ellman method. The following reagents were used: 5,5′-dithio-bis-2-nitrobenzoic acid (DTNB, Sigma-Aldrich, St. Louis, MO, USA), acetylthiocholine (ATCh, Sigma-Aldrich), butyrylthiocholine (BTCh, Sigma-Aldrich), human erythrocyte AChE (Biomed, Auckland, New Zealand), human plasma BChE (Mechnikov Scientific Research Institute of Vaccines and Serums, St. Petersburg, Russia), phosphate-buffered saline (PBS; pH 7.2; Biolot, […]) and distilled water (pH 5.97, Biolot).
(§2) AChE and BChE were dissolved in PBS to obtain solutions of 1 mg/mL. Due to its high activity, human BChE was used at a 1:30 dilution. Solutions of the studied compounds were prepared with serial dilutions; their concentration in the reaction mixture was in a range from 0 to 300 μM. Double-distilled water, ethanol and dimethyl sulfoxide (DMSO, up to 15% of the total solvent volume) were used as solvents. When using DMSO or ethanol, an additional control was performed to assess the effect of the solvent itself. Protein (AChE of BChE) was incubated for 5 min at 37 °C and then the coloring solution was added, which contained a 2 mM freshly prepared DTNB solution and the substrate (ATCh/BTCh) in the concentration range of 200–800 μM. The kinetics were recorded for 15 min at 37 °C at a wavelength of 405 nm. Activity (μM × min^−1) was calculated using the molar extinction coefficient 0.01415 μmol^−1 × cm^−1: (V/ε × l × v) × (ΔE/Δt), where V is the volume of the analyzed mixture (μL); v is the volume of the enzyme solution (μL); ΔE/Δt is the change in extinction in 1 min; l is the thickness of the absorbing layer (cm); and ε is the coefficient of molar extinction of […]. Each measurement was repeated three times.
(§3) The type of inhibition was evaluated using Lineweaver–Burk plots. The dissociation constant of the enzyme-inhibitor complex (Ki), the maximum rate (Vmax) and thermodynamic cooperativity factor α were calculated using the Graphpad Prism 8.0 program (GraphPad Software Inc., San Diego, CA, USA) according to the model “enzymatic kinetics-inhibition—type of inhibition”.

human AChE = target: T2, human AChE (Homo sapiens, UniProt P22303); assay: biochemical; format: biochemical; details: for Type of Inhibition / thermodynamic cooperativity factor α: human AChE; for Type of Inhibition: Lineweaver–Burk plots; for thermodynamic cooperativity factor α: mixed inhibition model
T2 construct: human erythrocyte AChE (Biomed, Auckland, New Zealand); purchased Biomed, Auckland, New Zealand; host or cells: human erythrocytes (natural source)
Protocol: as §1, §2, §3

5-HT4R = details: read-out: EC50 relative to 5-HT4R; cited from earlier work
[1] = human erythrocyte AChE, ATCh substrate, 37 °C, read-out: Ki

T2 sequence (P22303 32-617 isoform P22303-2 limits assumed): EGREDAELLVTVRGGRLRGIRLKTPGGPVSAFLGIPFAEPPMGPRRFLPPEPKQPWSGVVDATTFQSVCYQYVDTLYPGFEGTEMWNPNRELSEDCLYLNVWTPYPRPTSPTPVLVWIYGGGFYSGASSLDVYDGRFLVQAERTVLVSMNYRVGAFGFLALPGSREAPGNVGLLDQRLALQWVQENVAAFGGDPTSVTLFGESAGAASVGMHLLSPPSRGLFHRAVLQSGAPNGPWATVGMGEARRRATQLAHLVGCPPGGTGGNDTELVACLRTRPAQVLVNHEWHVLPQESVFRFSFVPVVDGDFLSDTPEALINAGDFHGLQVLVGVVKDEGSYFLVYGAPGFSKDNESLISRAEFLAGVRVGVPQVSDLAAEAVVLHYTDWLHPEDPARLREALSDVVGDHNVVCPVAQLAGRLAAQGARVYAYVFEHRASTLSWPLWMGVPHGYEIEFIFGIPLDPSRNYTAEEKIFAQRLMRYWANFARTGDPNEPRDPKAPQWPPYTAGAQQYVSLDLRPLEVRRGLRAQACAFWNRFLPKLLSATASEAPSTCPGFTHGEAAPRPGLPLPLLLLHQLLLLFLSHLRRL
T1 sequence (P06276 29-602): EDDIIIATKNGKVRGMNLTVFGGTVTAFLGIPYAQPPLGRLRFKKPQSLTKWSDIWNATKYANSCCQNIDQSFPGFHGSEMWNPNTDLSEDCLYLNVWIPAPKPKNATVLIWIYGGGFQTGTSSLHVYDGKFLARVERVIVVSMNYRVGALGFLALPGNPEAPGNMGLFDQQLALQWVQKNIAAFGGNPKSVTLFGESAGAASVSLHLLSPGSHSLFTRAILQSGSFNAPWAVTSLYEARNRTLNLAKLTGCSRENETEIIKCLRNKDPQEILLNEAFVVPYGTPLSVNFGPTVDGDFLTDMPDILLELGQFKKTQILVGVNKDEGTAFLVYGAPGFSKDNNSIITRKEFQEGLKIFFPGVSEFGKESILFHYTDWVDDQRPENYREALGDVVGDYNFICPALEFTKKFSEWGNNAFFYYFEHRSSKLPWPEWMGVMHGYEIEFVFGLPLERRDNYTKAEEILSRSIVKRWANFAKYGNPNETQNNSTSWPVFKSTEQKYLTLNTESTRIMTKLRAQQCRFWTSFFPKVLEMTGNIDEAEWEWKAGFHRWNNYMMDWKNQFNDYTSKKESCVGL

Structure (SMILES)	Type of Inhibition (human BChE)	Ki (human BChE; read-out: Ki)	Type of Inhibition (human AChE)	thermodynamic cooperativity factor α (human AChE)	Ki (human AChE; [1])	EC50 (5-HT4R)	Ki (human AChE)	AChE inhibition less effective than compound 24 (ratio of Ki) (human AChE; compound 13 vs compound 24)	Ki (human BChE)
CC(C)n1c(=O)n(C(=O)NC2CC3CCC(C2)N3C)c2ccccc21 (stereo not drawn) [Compound 15, reference compound]	competitive	9.7 µM	mixed	6.6	127 µM	0.018 µM			
CCN(CC)CCNC(=O)n1c(=O)n(C(C)C)c2ccc(C(F)(F)F)cc21 [Compound 23]	non-competitive	4.5 µM	mixed	3.1	60.5 µM				
CCN(CC)CCNC(=O)n1c(=O)n(C(C)(C)C)c2ccccc21.Cl [Compound 13, N-[2-(diethylamino)ethyl]-2-oxo-3-(tert-butyl)-2,3-dihydro-1H-benzimidazole-1-carboxamide hydrochloride]	non-competitive	1.7 µM	strictly competitive				36.1 µM	~300 times	
CC(C)n1c(=O)n(C(=O)N2CCN(C(c3ccccc3)c3ccc(Cl)cc3)CC2)c2ccccc21 (stereo not drawn) [Compound 24]	no inhibition		non-competitive		0.13 µM				no inhibitory effect; also recorded: did not demonstrate inhibitory properties; also recorded: no inhibition
CCN(CC)CCNC(=O)n1c(=O)n(C(C)C)c2ccccc21 [Compound 22]	competitive	15.2 µM	strictly competitive		97.1 µM				
CN(C)CCNC(=O)n1c(=O)n(C2CC2)c2ccccc21 [Compound 28]	non-competitive	28.1 µM	mixed	12.6	138 µM				
CCN(CC)CCNC(=O)n1c(=O)n(C2CC2)c2ccccc21 [Compound 27]	competitive	16.2 µM	mixed	10.9	132 µM				
CC(C)n1c(=O)n(C(=O)NC2CC3CCC(C2)N3C)c2cc(C(F)(F)F)ccc21 (stereo not drawn) [Compound 16]	competitive	21.3 µM	mixed	5.1	31 µM				
